Earlier results in patent US20220354770A1, “METHOD FOR DYEING KERATINOUS MATERIAL BY MEANS OF A PREMIX OF AMINOSILICONE AND A CHROMOPHORIC COMPOUND” (Henkel AG & Co. KGaA, priority 2019, published 2022).

Conditions: 25° C.

| Compound | solubility in water |
| --- | --- |
| O=S(=O)([O-])c1ccc(N=Nc2c(O)ccc3ccccc23)cc1.[Na+] [Acid Orange 7, sodium salt of 4-[(2-hydroxy-1-naphthyl)azo]benzene sulphonate] | more than 7 g/L |
| Nc1cc(S(=O)(=O)[O-])cc2cc(S(=O)(=O)[O-])c(N=Nc3ccccc3)c(O)c12.[Na+].[Na+] [Acid Red 33, diantrium salt of 5-amino-4-hydroxy-3-(phenylazo)-naphthalene-2,7-disulphonate] | 2500 µg/mL |
| O=C([O-])c1c(Cl)c(Cl)c(Cl)c(Cl)c1-c1c2c(Br)cc(=O)c(Br)c-2oc2c(Br)c(O)cc(Br)c12.O=C([O-])c1c(Cl)c(Cl)c(Cl)c(Cl)c1-c1c2c(Br)cc(=O)c(Br)c-2oc2c(Br)c(O)cc(Br)c12.[Na+].[Na+] [Acid Red 92, disodium salt of 3,4,5,6-tetrachloro-2-(1,4,5,8-tetrabromo-6-hydroxy-3-oxoxanthen-9-yl)benzoic acid] | greater than 10 g/L |
| O=C([O-])C1=NN(c2ccc(S(=O)(=O)[O-])cc2)C(=O)C1N=Nc1ccc(S(=O)(=O)[O-])cc1.[Na+].[Na+].[Na+] (stereo not shown) [Acid Yellow 23, trisodium salt of 4,5-dihydro-5-oxo-1-(4-sulfophenyl)-4-((4-sulfophenyl)azo)-1H-pyrazole-3-carboxylic acid] | highly soluble |
